Assay results as given in PubChem BioAssay AID2060909 (Molecular Pharmacology Branch, DTP, NCI, 2025).

Tested on: 362531-283-R-J2-PDC complex spheroid viability
Experiment: Anticancer human tumor 362531-283-R-J2-PDC patient-derived colon adenocarcinoma cell line growth inhibition [RAS]
Conditions: for IC50: curve of first compound; for viability, T/C: stronger effect = lower value; active = viability on the fitted dose curve at most 10% of control; inactive = the rest
In short: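 Agents were tested in combination matrices in half-log decrements from a top concentration at or near clinical Cmax (10 microM if undetermined). Targets were multi-cell spheroids of tumour lines plus HUVEC and MSC stromal cells.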

[1] = second compound 0.000949 µM, first compound 0.0316 µM
[2] = second compound 0.000949 µM, first compound 0.1 µM
[3] = second compound 0.000949 µM, first compound 0.316 µM
[4] = second compound 0.000949 µM, first compound 1 µM
[5] = second compound 0.000949 µM, first compound 3.16 µM
[6] = second compound 0.000949 µM, first compound 10 µM
[7] = second compound 0.003 µM, first compound 0.0316 µM
[8] = second compound 0.003 µM, first compound 0.1 µM
[9] = second compound 0.003 µM, first compound 0.316 µM
[10] = second compound 0.003 µM, first compound 1 µM
[11] = second compound 0.003 µM, first compound 3.16 µM
[12] = second compound 0.003 µM, first compound 10 µM
[13] = second compound 0.00949 µM, first compound 0.0316 µM
[14] = second compound 0.00949 µM, first compound 0.1 µM
[15] = second compound 0.00949 µM, first compound 0.316 µM
[16] = second compound 0.00949 µM, first compound 1 µM
[17] = second compound 0.00949 µM, first compound 3.16 µM
[18] = second compound 0.00949 µM, first compound 10 µM
[19] = second compound 0.03 µM, first compound 0.0316 µM
[20] = second compound 0.03 µM, first compound 0.1 µM
[21] = second compound 0.03 µM, first compound 0.316 µM
[22] = second compound 0.03 µM, first compound 1 µM
[23] = second compound 0.03 µM, first compound 3.16 µM
[24] = second compound 0.03 µM, first compound 10 µM
[25] = second compound 0.0949 µM, first compound 0.0316 µM
[26] = second compound 0.0949 µM, first compound 0.1 µM
[27] = second compound 0.0949 µM, first compound 0.316 µM
[28] = second compound 0.0949 µM, first compound 1 µM
[29] = second compound 0.0949 µM, first compound 3.16 µM
[30] = second compound 0.0949 µM, first compound 10 µM
[31] = second compound 0.3 µM, first compound 0.0316 µM
[32] = second compound 0.3 µM, first compound 0.1 µM
[33] = second compound 0.3 µM, first compound 0.316 µM
[34] = second compound 0.3 µM, first compound 1 µM
[35] = second compound 0.3 µM, first compound 3.16 µM
[36] = second compound 0.3 µM, first compound 10 µM
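Note: spheroids exposed to the agents for 7 days before readout.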
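Throughout, for viability, T/C: luminescence viability as percent of DMSO vehicle control wells.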

CC1(O)CCCC1n1c(=O)c(C(F)F)cc2cnc(NC3CCN(S(C)(=O)=O)CC3)nc21 (stereo not drawn) + CCn1c(-c2cccnc2C(C)OC)c2c3cc(ccc31)N1CCOC(CC(NC(=O)C(C(C)C)N(C)C(=O)C3(F)CCN(C(=O)C#CC(C)(C)N(C)C)CC3)C(=O)N3CCCC(N3)C(=O)OCC(C)(C)C2)C1
6.21 µM: IC50 (second compound 0.003 µM)
inactive: viability, T/C [1] 97.1% | viability, T/C [2] 113% | viability, T/C [3] 92.2% | viability, T/C [4] 70% | viability, T/C [5] 55% | viability, T/C [6] 73.7% | viability, T/C [7] 102% | viability, T/C [8] 92.1% | viability, T/C [9] 89.8% | viability, T/C [10] 72% | viability, T/C [11] 57.9% | viability, T/C [12] 44.6% | viability, T/C [13] 108% | viability, T/C [14] 110% | viability, T/C [15] 84% | viability, T/C [16] 72.4% | viability, T/C [17] 50.5% | viability, T/C [18] 53.9% | viability, T/C [19] 103% | viability, T/C [20] 97% | viability, T/C [21] 77.7% | viability, T/C [22] 63% | viability, T/C [23] 63.9% | viability, T/C [24] 38.9% | viability, T/C [25] 102% | viability, T/C [26] 91% | viability, T/C [27] 94.5% | viability, T/C [28] 58.9% | viability, T/C [29] 53.9% | viability, T/C [30] 54.7% | viability, T/C [31] 100% | viability, T/C [32] 87.4% | viability, T/C [33] 87.7% | viability, T/C [34] 66% | viability, T/C [35] 56.9% | viability, T/C [36] 51.4%
4.98 µM: IC50 (second compound 0.03 µM)
> 10 µM: IC50 (second compound 0.000949 µM) | IC50 (second compound 0.00949 µM) | IC50 (second compound 0.0949 µM) | IC50 (second compound 0.3 µM)

CCC(CC)c1cc(NC2CCC(N)C2)n2nccc2n1 (stereo not drawn) + CCn1c(-c2cccnc2C(C)OC)c2c3cc(ccc31)N1CCOC(CC(NC(=O)C(C(C)C)N(C)C(=O)C3(F)CCN(C(=O)C#CC(C)(C)N(C)C)CC3)C(=O)N3CCCC(N3)C(=O)OCC(C)(C)C2)C1
4.72 µM: IC50 (second compound 0.03 µM)
4.68 µM: IC50 (second compound 0.0949 µM)
4.52 µM: IC50 (second compound 0.000949 µM)
inactive: viability, T/C [1] 99.5% | viability, T/C [2] 111% | viability, T/C [3] 98.1% | viability, T/C [4] 98.4% | viability, T/C [5] 70.5% | viability, T/C [7] 105% | viability, T/C [8] 101% | viability, T/C [9] 99.9% | viability, T/C [10] 101% | viability, T/C [11] 70.8% | viability, T/C [13] 103% | viability, T/C [14] 116% | viability, T/C [15] 97.9% | viability, T/C [16] 96.5% | viability, T/C [17] 67.2% | viability, T/C [19] 102% | viability, T/C [20] 104% | viability, T/C [21] 95.8% | viability, T/C [22] 89% | viability, T/C [23] 76.8% | viability, T/C [25] 94.3% | viability, T/C [26] 102% | viability, T/C [27] 93.7% | viability, T/C [28] 94.8% | viability, T/C [29] 73.7% | viability, T/C [31] 99.2% | viability, T/C [32] 105% | viability, T/C [33] 100% | viability, T/C [34] 91.8% | viability, T/C [35] 80.8%
4.34 µM: IC50 (second compound 0.00949 µM)
4.95 µM: IC50 (second compound 0.3 µM)
active: viability, T/C [6] 3.98% | viability, T/C [12] 3.44% | viability, T/C [18] 3.91% | viability, T/C [24] 4.25% | viability, T/C [30] 4.42% | viability, T/C [36] 4.23%
4.5 µM: IC50 (second compound 0.003 µM)

Cc1nc(N2CCC3(CC2)COC(C)C3N)c(CO)nc1Sc1ccnc(N)c1Cl (stereo not drawn) + CCn1c(-c2cccnc2C(C)OC)c2c3cc(ccc31)N1CCOC(CC(NC(=O)C(C(C)C)N(C)C(=O)C3(F)CCN(C(=O)C#CC(C)(C)N(C)C)CC3)C(=O)N3CCCC(N3)C(=O)OCC(C)(C)C2)C1
> 10 µM: IC50 (second compound 0.000949 µM) | IC50 (second compound 0.003 µM) | IC50 (second compound 0.00949 µM) | IC50 (second compound 0.03 µM) | IC50 (second compound 0.0949 µM) | IC50 (second compound 0.3 µM)
inactive: viability, T/C [1] 103% | viability, T/C [2] 103% | viability, T/C [3] 93% | viability, T/C [4] 102% | viability, T/C [5] 80.6% | viability, T/C [6] 72% | viability, T/C [7] 111% | viability, T/C [8] 103% | viability, T/C [9] 103% | viability, T/C [10] 86.7% | viability, T/C [11] 87.3% | viability, T/C [12] 71.1% | viability, T/C [13] 102% | viability, T/C [14] 111% | viability, T/C [15] 92.1% | viability, T/C [16] 93.3% | viability, T/C [17] 82.4% | viability, T/C [18] 77.7% | viability, T/C [19] 102% | viability, T/C [20] 108% | viability, T/C [21] 95.5% | viability, T/C [22] 89.9% | viability, T/C [23] 82.5% | viability, T/C [24] 66.4% | viability, T/C [25] 105% | viability, T/C [26] 94.9% | viability, T/C [27] 96.7% | viability, T/C [28] 77.5% | viability, T/C [29] 85.6% | viability, T/C [30] 74.7% | viability, T/C [31] 94.8% | viability, T/C [32] 117% | viability, T/C [33] 94.2% | viability, T/C [34] 87.4% | viability, T/C [35] 76.7% | viability, T/C [36] 64.9%

NC1c2ccccc2OC12CCN(c1cnc3c(N4CCCc5ncccc54)n[nH]c3n1)CC2 (stereo not drawn) + CCn1c(-c2cccnc2C(C)OC)c2c3cc(ccc31)N1CCOC(CC(NC(=O)C(C(C)C)N(C)C(=O)C3(F)CCN(C(=O)C#CC(C)(C)N(C)C)CC3)C(=O)N3CCCC(N3)C(=O)OCC(C)(C)C2)C1
6.81 µM: IC50 (second compound 0.03 µM)
> 10 µM: IC50 (second compound 0.003 µM) | IC50 (second compound 0.3 µM)
inactive: viability, T/C [1] 91.7% | viability, T/C [2] 86.7% | viability, T/C [3] 76.7% | viability, T/C [4] 72.8% | viability, T/C [5] 54.8% | viability, T/C [6] 43% | viability, T/C [7] 94.8% | viability, T/C [8] 87.5% | viability, T/C [9] 75% | viability, T/C [10] 66.8% | viability, T/C [11] 63.3% | viability, T/C [12] 52% | viability, T/C [13] 86.6% | viability, T/C [14] 88.5% | viability, T/C [15] 71.3% | viability, T/C [16] 80.3% | viability, T/C [17] 69.9% | viability, T/C [18] 43.2% | viability, T/C [19] 95.8% | viability, T/C [20] 74.2% | viability, T/C [21] 77.4% | viability, T/C [22] 76.4% | viability, T/C [23] 65.6% | viability, T/C [24] 41.3% | viability, T/C [25] 95.3% | viability, T/C [26] 85.2% | viability, T/C [27] 79% | viability, T/C [28] 74.3% | viability, T/C [29] 56.4% | viability, T/C [30] 42.8% | viability, T/C [31] 87.8% | viability, T/C [32] 75.6% | viability, T/C [33] 76.9% | viability, T/C [34] 67.4% | viability, T/C [35] 57.7% | viability, T/C [36] 53.1%
5.87 µM: IC50 (second compound 0.0949 µM)
7.5 µM: IC50 (second compound 0.00949 µM)
5.44 µM: IC50 (second compound 0.000949 µM)
